US9221861B2, “Multivalent [beta]-1-2-linked mannose oligosaccharides as immunostimulatory compounds and uses thereof” (ABO AKADEMI UNIVERSITY, priority 2011, dated 2015)
Entries after “also recorded” stand apart in the source; their conditions may differ.

Columns and labels:
Format in all cases: cell-based, human
[1] = test system: peripheral blood mononuclear cells (PBMC); test: Induction of cytokines by synthetic oligosaccharide RP-I-82 in PBMC (Example 4); conditions: PBMC of three subjects, 24 hours
Description: (§1) The human PBMC were isolated from heparinized blood samples with Ficoll (Ficoll-Paque, Amersham Pharmacia Biotech, Sweden) density gradient centrifugation. The PBMC were washed twice with Hanks' balanced salt solution (HBSS) and suspended in RPMI medium supplemented 5% autologous serum, 2 mM L-glutamine (Fluka Biochemica, Germany) and 100 µg/ml gentamycin (Biological Industries, Israel). The cell suspension was diluted in the RPMI-based culture medium to 10^6 cells/ml and applied on 48-well culture plates (Costar, Cambridge, Mass., USA).
The synthetic oligosaccharide coded RP-I-82 was tested for the production of cytokines IL-4, IL-5, IL-10, IL-13, TNF and IFN-γ, in peripheral blood mononuclear cells (PBMC) samples of three subjects. The PBMC were stimulated by adding solubilized oligosaccharide in cell culture suspension. The synthetic oligovalent 3-1,2-linked oligosaccharide used in this example was a molecule according to the compound of formula (IV) of the invention (coded RP-I-82). A positive control was acid hydrolyzed Candida albicans mannan (CAM). The cytokine responses from PBMC were detected 24 hours after beginning of the stimulation by measuring cytokine secretion with high-sensitivity human cytokine LINCOplex™-kits (LINCO Research, St. Charles, Mo., USA) using Luminex^100™ instrumentation. The assays were performed in accordance with the manufacturer's protocol by employing Luminex technology.

[2] = test system: peripheral blood mononuclear cells (PBMC); test: Induction of cytokines by synthetic β-1,2-linked mannooligosaccharide compounds in PBMC (Example 1); conditions: PBMC of three atopic subjects, 72 h, 20 and 200 μg/ml (FIG. 5), LINCOplex/Luminex
Description: as §1
The synthetic oligosaccharides were tested for the production of cytokines IL-4, IL-5, IL-10 and IFN-γ, in peripheral blood mononuclear cells (PBMC) samples of three atopic subjects. The PBMC were stimulated by adding solubilized oligosaccharides in cell culture suspension. The synthetic polyvalent β-1,2-linked oligosaccharides used in this example are a molecule according to the compound of formula (IV) of the invention (coded CM-C8-2010), trivalent monosaccharide (R═H) coded CM-C4-2010 and pentavalent disaccharide (R═O) coded CM-C7-2010. The cytokine responses from PBMC were detected 72 h after beginning of the stimulation by measuring cytokine secretion with high-sensitivity human cytokine LINCOplex™-kits (LINCO Research, St. Charles, Mo., USA) using Luminex^100™ instrumentation. The assays were performed in accordance with the manufacturer's protocol by employing Luminex technology.

[3] = test system: allergen (birch) stimulated PBMC culture; test: Comparison with prior art adjuvants in suppression of birch allergen-induced IL-4, IL-5 and IL-13 in PBMC (Example 3); conditions: 24 hours; for Mean (SD) percentage of Birch induced cytokine response, IL-5: 15 subjects; for Mean (SD) percentage of Birch induced cytokine response, IL-13: 17 subjects; for Mean (SD) percentage of Birch induced cytokine response, IL-4: 19 subjects
Description: as §1
The effect of synthetic molecule according to the compound of formula (IV) of the invention coded CM-C8-2010 on the production of IL-4, IL-5 and IL-13, the main Th2-type cytokines promoting allergic inflammation, was studied in an allergen (birch) stimulated PBMC culture of 26 birch allergic patients with allergic rhinitis. The effect was compared to that of 3-deacylated monophosphoryl lipid A (MPL), the non-toxic derivative of lipopolysaccharide of Salmonella minnesota (LPS), and immunostimulatory bacterial DNA sequence (CpG-ODN-1). These molecules have been clinically successfully tested as adjuvants in allergen immunotherapy. Another bacterial DNA sequence (CpG-ODN-2) without immunostimulatory activity was used as a negative control. The PBMC were collected during a strong birch pollen season, were isolated and cultured as described above. Birch whole allergen extract was used at a concentration of 50 µg/ml and CM-C8-2010 at concentrations 200 and 20 µg/ml. CpG-ODN-1 and CpG-ODN-2 were used at a concentration 5 µg/ml and MPL at a concentration 10 µg/ml based on earlier published experiments. The cultures were incubated for 24 hours. Following stimulation, the productions of IL-4, IL-5 and IL-13 were measured with LINCOplex™-kits using Luminex100™ instrumentation. For analysis only the cultures with strong induced cytokine responses were included.

[4] = test system: allergen (birch) stimulated PBMC culture; test: Effect on allergen (birch) induced IL-5 production in PBMC culture (Example 2); conditions: PBMC of four birch allergic rhinitis patients; birch extract 50 µg/ml; CM-C8-2010 20 µg/ml; 72 hours (FIG. 6)
Description: as §1
Trivalent acetylated monosaccharide coded CM-C4-2011 was used as a negative control. The PBMC were isolated and cultured as described above. Birch whole allergen extract was used at a concentration of 50 µg/ml and CM-C8-2010 at a concentration of 20 µg/ml. The cultures were incubated for 72 hours. Following stimulation, the production of IL-5 was measured with LINCOplex™-kits using Luminex100™ instrumentation.

[5] = PBMC of birch allergic patients

CC(=O)OC[C@H]1O[C@@H](O[C@@H]2[C@@H](OCCCn3cc(COCC(COCc4cn(CCCO[C@H]5O[C@H](COC(C)=O)[C@@H](OC(C)=O)[C@H](OC(C)=O)[C@@H]5O[C@@H]5O[C@H](COC(C)=O)[C@@H](OC(C)=O)[C@H](OC(C)=O)[C@@H]5OC(C)=O)nn4)OCc4cn(CCCO[C@H]5O[C@H](COC(C)=O)[C@@H](OC(C)=O)[C@H](OC(C)=O)[C@@H]5O[C@@H]5O[C@H](COC(C)=O)[C@@H](OC(C)=O)[C@H](OC(C)=O)[C@@H]5OC(C)=O)nn4)nn3)O[C@H](COC(C)=O)[C@@H](OC(C)=O)[C@@H]2OC(C)=O)[C@@H](OC(C)=O)[C@@H](OC(C)=O)[C@@H]1OC(C)=O (stereo partly drawn) [RP-I-82, 1,2,3-tris[1-[(2,3,4,6-tetra-O-acetyl-β-D-mannopyranosyl)-(1→2)-(3,4,6-tri-O-acetyl-α-D-mannopyranosyloxypropyl)]-4-[methyl-1-oxy]triazolyl]propane]
Production of cytokines, mean (SD), IFN-γ ([1]; 20 μg/ml): 10 (15) pg/ml | Production of cytokines, mean (SD), IL-4 ([1]; 20 μg/ml): 2.6 (0.8) pg/ml | Production of cytokines, mean (SD), IL-5 ([1]; 20 μg/ml): 0.1 (0.2) pg/ml | Production of cytokines, mean (SD), IL-10 ([1]; 20 μg/ml): 110 (109) pg/ml | Production of cytokines, mean (SD), IL-13 ([1]; 20 μg/ml): 0.6 (0.2) pg/ml | Production of cytokines, mean (SD), TNF ([1]; 20 μg/ml): 52 (26) pg/ml | Production of cytokines, mean (SD), IFN-γ ([1]; 200 μg/ml): 18 (25) pg/ml | Production of cytokines, mean (SD), IL-4 ([1]; 200 μg/ml): 2.7 (0.2) pg/ml | Production of cytokines, mean (SD), IL-5 ([1]; 200 μg/ml): 0.2 (0.2) pg/ml | Production of cytokines, mean (SD), IL-10 ([1]; 200 μg/ml): 843 (253) pg/ml | Production of cytokines, mean (SD), IL-13 ([1]; 200 μg/ml): 0.5 (0.0) pg/ml | Production of cytokines, mean (SD), TNF ([1]; 200 μg/ml): 295 (146) pg/ml | IFN-γ production, inducer strength (in words) [1]: moderate inducer | IL-4 production (in words) [1]: not seen at all | IL-5 production (in words) [1]: not seen at all | IL-10 production, inducer strength (in words) [1]: strong inducer; also recorded: considerably higher than for the control | IL-13 production (in words) [1]: not seen at all | TNF production, inducer strength (in words) [1]: strong inducer; also recorded: considerably higher than for the control | pattern of cytokine induction in comparison to the blank sample (no stimulation) [1]: selective induction

CC(=O)OCC1O[C@@H](OC2C(OC(C)=O)[C@H](OC(C)=O)C(COC(C)=O)O[C@@H]2OCCn2cc(COCC(COCc3cn(CCO[C@H]4OC(COC(C)=O)[C@@H](OC(C)=O)C(OC(C)=O)C4O[C@@H]4OC(COC(C)=O)[C@@H](OC(C)=O)C(OC(C)=O)C4OC(C)=O)nn3)OCc3cn(CCO[C@H]4OC(COC(C)=O)[C@@H](OC(C)=O)C(OC(C)=O)C4O[C@@H]4OC(COC(C)=O)[C@@H](OC(C)=O)C(OC(C)=O)C4OC(C)=O)nn3)nn2)C(OC(C)=O)C(OC(C)=O)[C@@H]1OC(C)=O (stereo partly drawn) [CM-C8-2010, 1,2,3-tris[1-[(2,3,4,6-tetra-O-acetyl-β-D-mannopyranosyl)-(1→2)-(3,4,6-tri-O-acetyl-α-D-mannopyranosyloxyethyl)]-4-[methyl-1-oxy]triazolyl]propane]
production of IFN-γ (inducer strength) [2]: strong inducer | production of IL-10 (inducer strength) [2]: strong inducer | production of IFN-γ (inducer strength) ([2]; listed as formula (IV)): most active substance | production of IL-10 (inducer strength) ([2]; listed as formula (IV)): most active substance | Mean (SD) percentage of Birch induced cytokine response, IL-5 ([3]; 20 μg/ml): 86.0 (25.9) % | Mean (SD) percentage of Birch induced cytokine response, IL-13 ([3]; 20 μg/ml): 85.9 (97.5) % | Mean (SD) percentage of Birch induced cytokine response, IL-4 ([3]; 20 μg/ml): 90.8 (22.7) % | Mean (SD) percentage of Birch induced cytokine response, IL-5 ([3]; 200 μg/ml): 70.6 (22.6) % | Mean (SD) percentage of Birch induced cytokine response, IL-13 ([3]; 200 μg/ml): 58.5 (48.0) % | Mean (SD) percentage of Birch induced cytokine response, IL-4 ([3]; 200 μg/ml): 78.6 (24.3) % | suppression of birch allergen induced IL-4 response (in words) [3, 5]: more effectively than CpG-ODN-1 or MPL | suppression of birch allergen induced IL-5 response (in words) [3, 5]: more effectively than CpG-ODN-1 or MPL | suppression of birch allergen induced IL-13 response (in words) [3, 5]: more effectively than CpG-ODN-1 or MPL | suppression of birch allergen induced IL-5 response [4]: effectively suppressed
